Measured values published in article PMC11881437 (Molecular Medicine, 2025).

How the values were obtained:
[1] = tested on: CSC enriched spheres (CES) derived from HCT116 cells; assay: Cellular ROS, NO and LPO level in CES; assay type: cell-based, human; settings: 24 h, 26 µM Orientin, 13 µM 5FU, 14 µM Orientin + 7 µM 5FU
Description: Reactive oxygen species (ROS) level in the cells of treated and untreated CESs was measured by 2′,7′-dichlorofluorescein diacetate (DCFH-DA) standard protocol (Bhattacharjee et al. [2014]). The production of nitric oxide (NO) were estimated by the level of stable NO metabolites, viz., nitrate (NO3^–) and nitrite (NO2^–) ions by reaction with Griess reagent (Bryan and Grisham [2007]). […]

HUVEC = assay: Sprout (tube) formation assay with conditioned medium of CES; assay type: cell-based, human; settings: for sprout formation: numbers and length of tubes: HUVEC, 24 h with CM of treated CES
Description: (§1) HCT116 CRC cells were grown in ultra-low attachment plate in 3dGRO™ Spheroid Medium (Sigma-Aldrich, USA) for 7 days. Spheroids enriched with CSCs were considered as CSC enriched spheres (CESs) or commonly referred as tumorospheres. After 7 days, tumorospheres were subjected to different treatments for 24 h, as per experimental protocol. Media of tumorospheres of all the treatment groups were collected, centrifuged to remove the cell debris and suspended spheres, supernatants were collected and vacuum concentrated. These supernatants were referred as conditioned medium (CM) and were stored at − 20 °C until use.
Matrigel was thawed overnight and the plate was coated with Matrigel (BD Bioscience, USA) and incubated for 1 h for polymerization. HUVECs (1 × 10^4) were seeded onto the Matrigel coated plate. After 8 h, media were changed with CM of interest. After 24 h of treatment tube formation was visualized microscopically and photographs were captured (DM 1000, Leica, Germany). The tube numbers were quantified by counting the branches between two discrete endothelial cells and length of the tubes were measured using Image J software by drawing a line along each tube and measuring the length in micrometer.

HCT116 cells = assay: Atomic force microscopy of cell morphology; assay type: cell-based, human; settings: HCT116, 24 h; 26 µM Orientin, 13 µM 5FU, 14 µM Orientin + 7 µM 5FU
Description: The material properties and dimensions of the probe used in contact mode were as follows: resonance frequency of 13 kHz (± 4 kHz), force constant of 0.2 N/m (± 0.14 N/m), cantilever length of 450 µm (± 10 µm), cantilever width of 38 µm (± 5 µm), cantilever thickness of 2 µm (± 1 µm), tip radius of 5 nm (± 1 nm), and tip height of 17 µm (± 2 µm). The scan area depends on the size of the cancer cell and ranged from 20 × 10–30 × 20 µm^2. Image processing and data analysis were performed using Picoview 1.10 software.

[2] = tested on: chick chorioallantoic membrane; assay: Chick chorioallantoic membrane (CAM) assay with conditioned medium of CES; settings: CM of treated CES, day 4 vs day 1
Description: HCT116 CRC cells were grown in ultra-low attachment plate in 3dGRO™ Spheroid Medium (Sigma-Aldrich, USA) for 7 days. Spheroids enriched with CSCs were considered as CSC enriched spheres (CESs) or commonly referred as tumorospheres. After 7 days, tumorospheres were subjected to different treatments for 24 h, as per experimental protocol. Media of tumorospheres of all the treatment groups were collected, centrifuged to remove the cell debris and suspended spheres, supernatants were collected and vacuum concentrated. These supernatants were referred as conditioned medium (CM) and were stored at − 20 °C until use. To investigate the role of CSC on angiogenesis, a modified chick chorioallantoic membrane assay was carried out. Briefly, 100 µl CM of treated and untreated spheres were mixed with 1.5 mg/ml type I collagen (Gibco, USA). 10 µl of the mixture were loaded on the piece of 13 mm Thermanox discs (Nunc, Denmark) and permitted to get polymerize. The disc was then applied to the chorioallantoic membrane of a 4 days-old embryo. After 72 h of incubation, the area around the loaded disc was photographed with a digital camera, and the numbers of newly formed vessels were counted by two observers in a double-blind manner (Min et al. [2004]).

[3] = tested on: CSC enriched spheres (CES) derived from HCT116 cells; assay: Tumorosphere (CES) diameter and number; assay type: cell-based, human; settings: 24 h, 5FU vs control, Orientin and combination vs 5FU
Description: as §1

[4] = tested on: CD44+/CD133+ cell population in HIF1α transfected HCT116 derived tumorospheres; assay: Flow cytometry of CD44+/CD133+ cells in CES from HIF1α transfected HCT116 cells; assay type: cell-based, human; settings: transfected control 28.9%
Description: (§2) HCT116 cells were transiently transfected with HA-HIF1α-pcDNA3 plasmid (Addgene, USA, Plasmid #18949) by using lipofectamineTM 2000 (Thermo Fisher Scientific, USA) according to the manufacturer’s instructions. After 24 h of transfection, those cells were subjected to various experiments.
Percentages of CD44^+/CD133^+ cell population were determined within tumorospheres and HIF1α positive cells were determined within the CD44^+/CD133^+ cell population using a flow cytometer (BD LSRFortessa™ X-20) and analyzed by BD FACSDiva™ software.

[5] = Toxicity of Orientin alone in mice, 28 days; assay type: in vivo, BALB/c mice
Description: To determine the toxicity of only Orientin treatment in various doses, the mice were divided into five groups. Each group contained six animals (n = 6). Each animal of the vehicle control group (VC) was left untreated, while, mice of other four groups were administered Orientin intravenously with 1 mg/kg b.w, 3 mg/kg b.w, 5 mg/kg b.w and 10 mg/kg b.w dosage respectively for 28 days. […] All the treatments were continued for 10 days. On day 11 all the mice were sacrificed and different parameters were studied.
Glutathione-S-transferase (GST), superoxide dismutase (SOD), Catalase (CAT), Glutathione peroxidase (GPx) and reduced glutathione (GSH) activity in hepatic tissue were assessed as described previously (Hajra et al. [2018b]). Values of all the parameters were calculated with respect to the amount of total protein present in liver homogenates.
Various organs and solid tumors collected after sacrificing the mice were embedded into paraffin after 10% neutral buffered formalin fixation. 4 μm sections were prepared and used for histopathological study. Standard Hematoxylin and Eosin (H&E) staining protocol was used and sections were visualized under light microscope (DM 1000, Leica, Germany) (Hajra et al. [2018a]).

[6] = tested on: CES from HIF1α transfected HCT116 cells; assay: Diameter and number of CES from HIF1α transfected HCT116 cells; assay type: cell-based, human
Description: as §1, §2

HIF1α, VEGFA, NF-ĸB = assay: Western blot of HIF1α, VEGFA and NF-ĸB in CES; assay type: cell-based, human; settings: 24 h
Description: Cells were incubated with Brefeldin A (10 µg/ml) for 4 h before harvesting to determine VEGFA expression. Briefly, cells were lysed with RIPA buffer [50 mmol/L Tris–HCl (pH 7.8), 150 mmol/L NaCl, 1% Triton X-100, 0.1% SDS, 0.5% sodium deoxycholate, and 1 mmol/L EDTA] containing complete protease inhibitor cocktail. Equal amount of protein was electrophoresed on SDS-PAGE and electro transferred onto polyvinylidene difluoride (PVDF) membranes using Bio-Rad mini gel apparatus. The membranes were probed with OCT4 (Thermo Fisher Scientific, USA), SOX2 (AbCam, USA), NANOG (Thermo Fisher Scientific, USA), HIF1α (Thermo Fisher Scientific, USA) and VEGFA (Thermo Fisher Scientific, USA) and NF-ĸB (Santa Cruz Biotechnology, USA) antibodies. β-Actin (Santa Cruz Biotechnology, USA) and α-TUBULIN (Santa Cruz Biotechnology, USA) antibodies were used as loading control. Then, the blots were probed with HRP tagged secondary antibodies. Signals were detected with the ECL system (Promega, USA) and images were captured in iBright™ CL1500 Imaging System.

SMILES | ROS, NO and LPO production in tumorospheres [1] | sprout formation: numbers and length of tubes (HUVEC) | cell morphology by AFM (HCT116 cells) | number of blood vessels formed in CAM [2] | diameter of spheres [3] | number of spheres [3] | CD44+/CD133+ cell population [4] [%] | hepatic GSH and activity of GST, GPx, SOD and CAT ([5]; 5 mg/kg b.w Orientin i.v., 28 days) | hepatic LPO level ([5]; 5 mg/kg b.w Orientin i.v., 28 days, vs control) | histopathology of liver, heart, lung and kidney ([5]; 5 mg/kg b.w Orientin, vs control) | number of sprouting and length of tubes, comparison with VEGFA neutralizing antibody (HUVEC; HUVEC with CM of treated CES, 5 µg/ml VEGFA neutralizing antibody, 26 µM Orientin) | diameter of spheres [6] | number of spheres [6] | NF-ĸB expression (HIF1α, VEGFA, NF-ĸB)
O=c1[nH]cc(F)c(=O)[nH]1 [5FU, 5-Fluorouracil, reference compound] | increased | instigated sprout formations by increasing the numbers and length of tubes | cell shrinkage, distortion, nuclear condensation and fragmentation, membrane blebbing and morphological changes of cellular bodies | increase in number of blood vessel formation | significantly increased | significantly increased |  |  |  |  |  |  |  | 
O=c1cc(-c2ccc(O)c(O)c2)oc2c([C@@H]3O[C@H](CO)[C@@H](O)[C@H](O)[C@H]3O)c(O)cc(O)c12 [Orientin] | decrease | remarkably reduced | cell shrinkage, distortion, nuclear condensation and fragmentation, membrane blebbing and morphological changes of cellular bodies | Non-significant change | significant decreases | significant decreases | 16.4 | increase | significantly decreased | no histopathological changes | same level of inhibition | decrease | decrease | downregulated
